According to patent US20260306633A1, “A COMBINATION THERAPY FOR CANCER TREATMENT” (Purdue Research Foundation, priority 2023, published 2026):
“Also recorded” adds a separate entry of the source. Like-named read-outs stand apart in the source and are kept apart here.

Tests used:
human TNBC BT-549 cells = assay: Fluorescence microscopy (Hoechst 33258) of cell morphology / cell death pathway; assay type: cell-based; conditions: paclitaxel 50 nM, unirradiated (FIG. 18I)
[1] = test system: human gastric adenocarcinoma AGS cell line; conditions: another study; cited from earlier work
[2] = test system: human triple-negative breast cancer (TNBC) BT-549 cells; assay: Transmission electron microscopy of cell ultrastructure; assay type: cell-based; conditions: paclitaxel 50 nM
Procedure: Irregularly shaped nuclear membrane is apparent in treated cells in the dark or in the presence of light. Light dose in 30 seconds=0.48 J cm^−2. Concentrations: PSs=50 nM; paclitaxel=50 nM; and, fluororuracil=25 μM.
Cells were cultured to confluence in a petri dish ([…] in diameter), treated for 24 hrs with 500 nM of PS, then irradiated for 2 minutes as above. After 12 photosensitization 24 hours later, cells were scraped gently in the dark, fixed in 2.5% glutaraldehyde in 0.1M [COMPOUND LEFT OUT] buffer, then post-fixed with 1% osmium tetroxide (containing 0.8% [COMPOUND LEFT OUT], treated with 2% aqueous uranyl acetate, and subsequently dehydrated in gradient concentrations (50-100%) of varying ethanol:water mixtures. The resulting pellets were embedded in resin and consequently cut with an ultramicrotome to a 70 nm thickness, then viewed using Tecnai T20 transmission electron microscope.
Transmission electron micrographs of TNBC cells clearly differentiated distinct cellular compartments, in particular, of nuclear components and plasma membrane during treatment as shown in FIG. 19. A typical normal organelle morphology with smooth-contoured cellular plasma membrane is depicted in TNBC cells irradiated with light without treatment with PS nor chemotherapeutic agent (FIG. 19A). […]

TNBC BT-549 cells = assay: Cell survival / cell inhibition (MTT cell cytotoxicity assay) after 24 h treatment with photosensitizer and/or chemotherapeutic agent, dark or light-irradiated; assay type: cell-based, human; conditions: for viability at 0.1 µM / viability at 0.01 µM: paclitaxel; for viability at 0.1 µM: high end of 10-100 nM, read-out: cell survival, drug only (end of decrease); for viability at 0.01 µM: low end of 10-100 nM, read-out: cell survival, drug only (start of decrease)
[3] = Homo sapiens, BT-549, 24 h, dark
[4] = Homo sapiens, BT-549, 24 h, light

SMILES: CC(=O)O[C@H]1C(=O)[C@@]2(C)[C@H]([C@H](OC(=O)c3ccccc3)[C@]3(O)C[C@H](OC(=O)[C@H](O)[C@@H](NC(=O)c4ccccc4)c4ccccc4)C(C)=C1C3(C)C)[C@]1(OC(C)=O)CO[C@@H]1C[C@@H]2O [paclitaxel, reference compound]
- cell morphology, paclitaxel-treated (human TNBC BT-549 cells): shrunk cells and chromatin fragmentation are evident; also recorded: Shrunk cells and chromatin condensation are evident
- cell death modes triggered [1]: apoptosis, autophagy, and mitotic catastrophe were triggered
- ultrastructure, paclitaxel in the dark ([2]; dark (FIG. 19C)): Irregularly shaped nuclear envelope; also recorded: loss of nuclear circularity and formation of chromatin condensation
- ultrastructure, paclitaxel irradiated ([2]; light 0.48 J/cm^2 (FIG. 19E)): smaller nuclei in multi-nucleated cells indicating chromosomal condensation; also recorded: split and fragmented with many atypical vesicular components in the cytosolic compartment
- viability at 0.05 µM (TNBC BT-549 cells; Homo sapiens, BT-549, 24 h, paclitaxel 50 nM, dark, read-out: cell survival, drug only): 57%
- viability at 0.1 µM (TNBC BT-549 cells; [3]): 49%
- viability at 0.01 µM (TNBC BT-549 cells; [3]): 64%
- viability at 0.1 µM (TNBC BT-549 cells; [4]): 52%
- viability at 0.01 µM (TNBC BT-549 cells; [4]): 66%
- average increase in cell survival upon light irradiation compared to unirradiated cells, drug only (TNBC BT-549 cells; drug alone, light vs dark): 4%
